Test results reported in patent EP0019764A1, “Trans-3-(4'-tert.-butyl-cyclohexyl-1')-2-methyl-1-(3'-methylpiperidino, 3',5'-dimethylpiperidino and 2', 6'-dimethylmorpholino) propane, process for their pure preparation, antimycotic agents containing them and their utilisation” (BASF Aktiengesellschaft, priority 1979, dated 1980).
In brackets after ≈: the same amount, converted by molar mass. Like-named read-outs stand apart in the source and are kept apart here.

Assays:
Microsporum gypseum = experiment: agar dilution test, minimal inhibitory concentration; assay type: cell-based; conditions: Nannizzia gypsea; Stamm No 156/M; Agardilutionstest; read-out: MHK-Werte
Description: (§1) Die Wirkung gegenüber Mikroorganismen kann nach Methoden, wie sie beispielsweise in P. Klein, Bakteriologische Grundlagen der chemotherapeutischen Laboratoriumspraxis, Springer-Verlag Berlin, 1957, beschrieben sind, aufgezeigt werden.
(§2) Beispielsweise wurde geprüft, welche minimalen Hemmkonzentrationen (MHK-Werte) im Agardilutionstest gegen pathogene Pilze erreicht werden können.
(§3) In der folgenden Tabelle 1 sind die Ergebnisse zusammengefaßt: […]

[1] = tested on: Trichophyton mentagrophytes; experiment: as above; assay type: cell-based; conditions: Agardilutionstest, read-out: MHK-Werte
Description: as §1, §2, §3

Trichophyton rubrum = experiment: as above; assay type: cell-based; conditions: Stamm No 158/M, Agardilutionstest, read-out: MHK-Werte
Description: as §1, §2, §3

Trichophyton violaceum = experiment: as above; assay type: cell-based; conditions: Stamm No 10/M, Agardilutionstest, read-out: MHK-Werte
Description: as §1, §2, §3

Microsporum canis = experiment: as above; assay type: cell-based; conditions: Agardilutionstest, read-out: MHK-Werte
Description: as §1, §2, §3

Epidermophyton floccosum = experiment: as above; assay type: cell-based; conditions: Stamm No 157/M, Agardilutionstest, read-out: MHK-Werte
Description: as §1, §2, §3

Microsporum ferrugineum = experiment: as above; assay type: cell-based; conditions: Stamm No 5/M, Agardilutionstest, read-out: MHK-Werte
Description: as §1, §2, §3

[2] = tested on: Trichophyton schoenleinii; experiment: as above; assay type: cell-based; conditions: Stamm No 9/M, Agardilutionstest, read-out: MHK-Werte
Description: as §1, §2, §3

[3] = acute oral toxicity (LD50) in the mouse; conditions: in vivo, Maus per os
Description: Aus diesen LD50-Werten ergibt sich für die topische und systemische Anwendung nach oraler Gabe eine genügend therapeutische Breite.

[4] = tested on: humanpathogenen Pilzen und Hefen aus dem Verwandtschaftskreis der Dermatophyten; experiment: inhibitory effect on microorganisms, trans compound compared with cis compound; assay type: cell-based; conditions: compared with the respective cis compound; Hemmeffekte gegenüber Mikroorganismen
Description: Aufgrund der überraschenden Feststellung, daß die reinen trans-Verbindungen gegenüber humanpathogenen Pilzen und Hefen aus dem Verwandtschaftskreis der Dermatophyten um das 10-fache und noch darüber hinaus stärker wirksam sind als die cis-Verbindungen, ist es eine Aufgabe der Erfindung, Verfahren zur Herstellung der reinen trans-Verbindungen (1) bis (3) zu entwickeln.
überraschenderweise sind die reinen trans-Verbindungen fast ausschließlich Träger der guten antimykotischen Wirkung. Verglichen mit der jeweiligen cis-Verbindung und bezogen auf die Hemmeffekte gegenüber Mikroorganismen, sind die trans-Verbindungen (1), (2) und (3) 10-fach und noch darüber hinaus stärker wirksam. Das bedeutet beispielsweise bei etwa gleichen Toxizitätswerten eine wesentliche Verbesserung der therapeutischen Breite.

Row | Compound | MIC (Microsporum gypseum) [µg/mL] | MIC ([1]; Stamm No 19/M) [µg/mL] | MIC ([1]; Stamm No 21/M) [µg/mL] | MIC ([1]; Stamm No 159/M) [µg/mL] | MIC ([1]; Stamm No 160/M) [µg/mL] | MIC ([1]; Stamm No 172/M) [µg/mL] | MIC ([1]; Stamm No 173/M) [µg/mL] | MIC (Trichophyton rubrum) [µg/mL] | MIC (Trichophyton violaceum) [µg/mL] | MIC (Microsporum canis; Stamm No 167/M) [µg/mL] | MIC (Microsporum canis; Stamm No 168/M) [µg/mL] | MIC (Microsporum canis; Stamm No 169/M) [µg/mL] | MIC (Epidermophyton floccosum) [µg/mL] | MIC (Microsporum ferrugineum) [µg/mL] | MIC [2] [µg/mL] | MIC ([1]; Stamm No 170/M) [µg/mL] | MIC ([1]; Stamm No 171/M) [µg/mL] | MIC ([1]; Stamm No 174/M) [µg/mL] | MIC (Microsporum canis; Stamm No 155/M) [µg/mL] | LD50 [3] [mg/kg] | further results
1 | CC1CCCN(CC(C)C[C@H]2CC[C@@H](C(C)(C)C)CC2)C1 (relative stereo) [(1) cis, cis- und trans-3-(4-tert.-Butyl-cyclohexyl-1)-2-methyl-1-(3'-methyl-1-piperidino)-propan] | 0.25 (≈ 0.852 µM) | 0.5 (≈ 1.7 µM) | 0.25 (≈ 0.852 µM) | 0.0312 (≈ 0.106 µM) | 0.25 (≈ 0.852 µM) | 0.5 (≈ 1.7 µM) | 0.25 (≈ 0.852 µM) | 0.25 (≈ 0.852 µM) | 0.0625 (≈ 0.213 µM) | 0.25 (≈ 0.852 µM) | 0.0625 (≈ 0.213 µM) | 0.5 (≈ 1.7 µM) | 0.25 (≈ 0.852 µM) | 0.0312 (≈ 0.106 µM) | – | – | – | – | – | – | –
2 | CC1CCCN(CC(C)C[C@H]2CC[C@H](C(C)(C)C)CC2)C1 (relative stereo) [(1) trans, trans-3-(4'-tert.-Butyl-cyclohexyl-1')-2-methyl-1-(3'--methyl-1'-piperidino)-propan] | 0.0156 (≈ 0.0531 µM) | 0.0312 (≈ 0.106 µM) | 0.0312 (≈ 0.106 µM) | 0.0078 (≈ 0.0266 µM) | 0.0312 (≈ 0.106 µM) | 0.0625 (≈ 0.213 µM) | 0.0312 (≈ 0.106 µM) | 0.0312 (≈ 0.106 µM) | 0.0156 (≈ 0.0531 µM) | 0.0312 (≈ 0.106 µM) | 0.0156 (≈ 0.0531 µM) | 0.0625 (≈ 0.213 µM) | 0.0312 (≈ 0.106 µM) | 0.0078 (≈ 0.0266 µM) | 0.0625 (≈ 0.213 µM) | 0.0156 (≈ 0.0531 µM) | 0.0156 (≈ 0.0531 µM) | 0.0312 (≈ 0.106 µM) | 0.0156 (≈ 0.0531 µM) | 305 | stärker wirksam als die cis-Verbindung [4]: ≥ 10 fach
3 | CC1CC(C)CN(CC(C)C[C@H]2CC[C@@H](C(C)(C)C)CC2)C1 (relative stereo) [(2) cis, cis- und trans-3-(4'-tert.-Butyl-cyclohexyl-1')-2--methyl-1-(3',5'-dimethyl-1'-piperidino)-propan] | – | 0.25 (≈ 0.813 µM) | – | 0.0156 (≈ 0.0507 µM) | – | – | 0.25 (≈ 0.813 µM) | – | 0.0625 (≈ 0.203 µM) | – | 0.0312 (≈ 0.101 µM) | – | – | 0.0625 (≈ 0.203 µM) | 0.0625 (≈ 0.203 µM) | 0.0625 (≈ 0.203 µM) | 0.0625 (≈ 0.203 µM) | – | – | – | –
4 | CC1CC(C)CN(CC(C)C[C@H]2CC[C@H](C(C)(C)C)CC2)C1 (relative stereo) [(2) trans, trans-3-(4'-tert.-Butyl-cyclohexyl-1')-2-methyl-1-(3',5'--dimethyl-l'-piperidino)-propan] | 0.0312 (≈ 0.101 µM) | 0.0625 (≈ 0.203 µM) | 0.0312 (≈ 0.101 µM) | < 0.0078 | 0.0312 (≈ 0.101 µM) | 0.0312 (≈ 0.101 µM) | 0.0312 (≈ 0.101 µM) | 0.0312 (≈ 0.101 µM) | < 0.0078 | 0.0156 (≈ 0.0507 µM) | < 0.0078 | 0.0312 (≈ 0.101 µM) | 0.0156 (≈ 0.0507 µM) | < 0.0078 | 0.0156 (≈ 0.0507 µM) | < 0.0078 | < 0.0078 | 0.0156 (≈ 0.0507 µM) | 0.0312 (≈ 0.101 µM) | 335 | stärker wirksam als die cis-Verbindung [4]: ≥ 10 fach
5 | CC(CN1C[C@@H](C)O[C@@H](C)C1)C[C@H]1CC[C@@H](C(C)(C)C)CC1 (relative stereo) [(3) cis, cis- und trans-3-(4'-tert.-Butyl-cyclohexyl-l')-2--methyl-l-(2',6'-cis-dimethyl-morpholyl)-propan] | – | 1 (≈ 3.23 µM) | 1 (≈ 3.23 µM) | 0.0625 (≈ 0.202 µM) | – | 0.25 (≈ 0.808 µM) | 0.25 (≈ 0.808 µM) | > 1 | – | 0.0625 (≈ 0.202 µM) | 0.0625 (≈ 0.202 µM) | – | 0.25 (≈ 0.808 µM) | 0.0312 (≈ 0.101 µM) | – | 0.0625 (≈ 0.202 µM) | 0.0625 (≈ 0.202 µM) | – | 0.5 (≈ 1.62 µM) | – | –
6 | CC(CN1C[C@@H](C)O[C@@H](C)C1)C[C@H]1CC[C@H](C(C)(C)C)CC1 (relative stereo) [(3) trans, trans-3-(4'-tert.-Butyl-cyclohexyl-1')-2-methyl-1--(2',6'-cis-dimethylmorpholino)-propan] | 0.0156 (≈ 0.0504 µM) | 0.0312 (≈ 0.101 µM) | 0.0625 (≈ 0.202 µM) | < 0.0078 | 0.0625 (≈ 0.202 µM) | 0.0625 (≈ 0.202 µM) | 0.0625 (≈ 0.202 µM) | 0.0625 (≈ 0.202 µM) | 0.0156 (≈ 0.0504 µM) | 0.0312 (≈ 0.101 µM) | 0.0156 (≈ 0.0504 µM) | 0.0312 (≈ 0.101 µM) | 0.0312 (≈ 0.101 µM) | < 0.0078 | 0.0156 (≈ 0.0504 µM) | 0.0156 (≈ 0.0504 µM) | 0.0156 (≈ 0.0504 µM) | 0.0156 (≈ 0.0504 µM) | 0.0312 (≈ 0.101 µM) | 2250 | stärker wirksam als die cis-Verbindung [4]: ≥ 10 fach
7 | Clc1ccccc1C(c1ccccc1)(c1ccccc1)n1ccnc1 [Clotrimazol, reference compound] | 0.64 (≈ 1.86 µM) | 1.28 (≈ 3.71 µM) | 1.28 (≈ 3.71 µM) | 0.32 (≈ 0.928 µM) | 0.64 (≈ 1.86 µM) | 0.64 (≈ 1.86 µM) | 0.64 (≈ 1.86 µM) | 1.28 (≈ 3.71 µM) | 0.16 (≈ 0.464 µM) | 0.64 (≈ 1.86 µM) | 0.16 (≈ 0.464 µM) | 0.64 (≈ 1.86 µM) | 0.32 (≈ 0.928 µM) | 0.16 (≈ 0.464 µM) | 0.64 (≈ 1.86 µM) | 0.32 (≈ 0.928 µM) | 0.32 (≈ 0.928 µM) | 1.28 (≈ 3.71 µM) | 0.32 (≈ 0.928 µM) | – | –
8 | Clc1ccc(COC(Cn2ccnc2)c2ccc(Cl)cc2Cl)c(Cl)c1 (stereo not drawn) [Miconazol, reference compound] | > 1.28 | > 1.28 | > 1.28 | 0.32 (≈ 0.769 µM) | > 1.28 | 0.32 (≈ 0.769 µM) | 0.32 (≈ 0.769 µM) | > 1.28 | 0.64 (≈ 1.54 µM) | > 1.28 | > 1.28 | > 1.28 | > 1.28 | > 1.28 | > 1.28 | 1.28 (≈ 3.08 µM) | 0.64 (≈ 1.54 µM) | > 1.28 | > 1.28 | – | –
9 | Cc1cccc(N(C)C(=S)Oc2ccc3ccccc3c2)c1 [Tolnaftat, reference compound] | 0.16 (≈ 0.52 µM) | 0.04 (≈ 0.13 µM) | 0.32 (≈ 1.04 µM) | 0.08 (≈ 0.26 µM) | 0.32 (≈ 1.04 µM) | 0.64 (≈ 2.08 µM) | 0.32 (≈ 1.04 µM) | 0.08 (≈ 0.26 µM) | < 0.01 | 0.16 (≈ 0.52 µM) | 0.04 (≈ 0.13 µM) | 0.32 (≈ 1.04 µM) | 0.32 (≈ 1.04 µM) | 0.16 (≈ 0.52 µM) | 0.04 (≈ 0.13 µM) | 0.08 (≈ 0.26 µM) | 0.16 (≈ 0.52 µM) | 0.08 (≈ 0.26 µM) | 0.32 (≈ 1.04 µM) | – | –
